Experimental findings from patent US9072698B2, “Method for screening anti-cancer compounds inhibiting function of TM4SF5 and anti-cancer composition containing chalcone compounds” (Seoul National University Industry Foundation, priority 2006, dated 2015) are described below.

Converted amounts (≈) assume the structure as drawn.

What all share (type): cell-based
Assay [1] has as its system HCT15 (colon adenocarcinoma). In words: In vitro cytotoxicity, sulforhodamine B (SRB) method, HCT15. Conditions: Homo sapiens; HCT-15, SRB method; read-out: cytotoxicity (ED50) HCT-15. The method, then: (§1) The chalcone derivatives of the present invention were evaluated for in vitro cytotoxicity against human carcinoma cell lines using a sulforhodamine B (SRB) method, which was developed in 1989 by the National Cancer Institute (NCI), USA.
(§2) HCT15 (colon adenocarcinoma; ATCC CCL-225), PC-3 (prostate adenocarcinoma; ATCC CRL-1435), and A-549 (lung carcinoma; ATCC CCL-185) cell lines were used. All of these carcinoma cells were sub-cultured at the Korean Research Institute of Bioscience and Biotechnology (KRIBB), Korea.
(§3) The human carcinoma cell lines were cultured in 10% FCS-containing RPMI 1640 medium (Gibco Cat. No. 31800) in an incubator at 37° C. under 5% CO2, and sub-cultured twice per week.
(§4) Cells were detached from the attached surface using 0.25% Trypsin (Sigma) and 3 mM CDTA (1,2-cyclohexane diamine tetraacetic acid, Sigma) in phosphate buffered saline (PBS, Sigma).
(§5) Compounds to be tested (the chalcone derivatives set forth in Table 1) were dissolved in a small amount of dimethylsulfoxide (DMSO, Sigma), and diluted in culture medium to a desired concentration. The final concentration of DMSO was less than 0.5%. The diluted compounds (final concentration: 30, 10, 3, 1 and 0.3 μg/ml) were sterilized through a 0.22-μm microfilter (Millipore). The cytotoxicity of the compounds to human carcinoma cell lines was assessed using a typical SRB method.
For orientation: Sulforhodamine B stains cellular protein and so reports cell mass.

Another assay deals with A-549 (lung carcinoma). In words: In vitro cytotoxicity, sulforhodamine B (SRB) method, A-549. The note with it: Homo sapiens, A549; A-549, SRB method; read-out: cytotoxicity (ED50) A-549. How it is done: as §1, §2, §3, §4, §5
Assay [2] has as its system PC-3 (prostate adenocarcinoma). In words: In vitro cytotoxicity, sulforhodamine B (SRB) method, PC-3. Conditions: Homo sapiens; PC-3, SRB method; read-out: cytotoxicity (ED50) PC-3. The method, then:
as §1, §2, §3, §4, §5

In the case of `O=C(/C=C/c1ccc(O)c(O)c1)c1ccc(NS(=O)(=O)c2ccccc2[N+](=O)[O-])cc1` [Compound 77, 4′-(o-nitrobenzensulfonylamino)-3,4-dihydroxychalcone], the IC50 in assay [1] came to 10 µg/mL (≈ 22.7 µM); in the assay with A-549 (lung carcinoma), 11 µg/mL (≈ 25 µM); in assay [2] it was 12 µg/mL (≈ 27.2 µM).
The matching figures for `Cc1ccc(S(=O)(=O)Nc2ccccc2C(=O)/C=C/c2ccc(O)cc2)cc1` [Compound 5, 2′-(p-toluenesulfonylamino)-4-hydroxychalcone]: 42 µg/mL (≈ 107 µM), 40 µg/mL (≈ 102 µM) and 47 µg/mL (≈ 119 µM).
The matching figures for `Nc1ccc(S(=O)(=O)Oc2ccc(C(=O)/C=C/c3ccc(O)cc3)cc2)cc1` [Compound 39, 4′-(p-aminobenzenesulfonate)-4-hydroxychalcone]: 39 µg/mL (≈ 98.6 µM), 37 µg/mL (≈ 93.6 µM) and 38 µg/mL (≈ 96.1 µM).
The matching figures for `Cc1ccc(S(=O)(=O)Oc2ccc(C(=O)/C=C/c3ccc(O)cc3)cc2)cc1` [Compound 35, 4′-(p-toluenesulfonate)-4-hydroxychalcone]: 51 µg/mL (≈ 129 µM), 47 µg/mL (≈ 119 µM) and 57 µg/mL (≈ 145 µM).
For `O=C(/C=C/c1ccc(O)cc1)c1ccc(OS(=O)(=O)c2ccc(O)cc2)cc1` [Compound 84, 4′-(p-hydroxybenzenesulfonate)-4-hydroxychalcone], the results for the IC50 (in assay [1]; in the assay on A-549 (lung carcinoma); in assay [2]) were 32 µg/mL (≈ 80.7 µM), 38 µg/mL (≈ 95.9 µM) and 22 µg/mL (≈ 55.5 µM), respectively.
The matching figures for `O=C(/C=C/c1cccc(O)c1O)c1ccc(NS(=O)(=O)c2cccc(O)c2)cc1` [Compound 61, 4′-(m-hydroxybenzenesulfonylamino)-2,3-dihydroxychalcone]: 12 µg/mL (≈ 29.2 µM), 10 µg/mL (≈ 24.3 µM) and 10 µg/mL (≈ 24.3 µM).
The matching figures for `Cc1ccc(S(=O)(=O)Nc2ccc(C(=O)/C=C/c3ccc(O)cc3Cl)cc2)cc1` [Compound 83, 4′-(p-toluenebenzensulfonylamino)-2-chloro-4-hydroxychalcone]: 15 µg/mL (≈ 35.1 µM), 11 µg/mL (≈ 25.7 µM) and 14 µg/mL (≈ 32.7 µM).
Take `O=C(/C=C/c1ccc(O)c(O)c1)c1ccc(NS(=O)(=O)c2ccc(F)cc2)cc1` [Compound 72, 4′-(p-fluorobenzensulfonylamino)-3,4-dihydroxychalcone]: the IC50 was found to be 10 µg/mL (≈ 24.2 µM) in assay [1], 11 µg/mL (≈ 26.6 µM) with A-549 (lung carcinoma) and 8 µg/mL (≈ 19.4 µM) in assay [2].
The matching figures for `O=C(/C=C/c1cccc(O)c1)c1ccccc1NS(=O)(=O)c1ccc(O)cc1` [Compound 13, 2′-(p-hydroxybenzenesulfonylamino)-3-hydroxychalcone]: 38 µg/mL (≈ 96.1 µM), 36 µg/mL (≈ 91 µM) and 41 µg/mL (≈ 104 µM).
`O=C(/C=C/c1ccc(O)c(O)c1)c1ccccc1NS(=O)(=O)c1cccc(O)c1` [Compound 68, 2′-(m-hydroxybenzenesulfonylamino)-3,4-dihydroxychalcone]: the IC50 was found to be 6 µg/mL (≈ 14.6 µM) in assay [1], 8 µg/mL (≈ 19.4 µM) with A-549 (lung carcinoma) and 10 µg/mL (≈ 24.3 µM) in assay [2].
As to `O=C(/C=C/c1cccc(O)c1O)c1ccccc1NS(=O)(=O)c1ccc(O)cc1` [Compound 57, 2′-(p-hydroxybenzenesulfonylamino)-2,3-dihydroxychalcone], the IC50 in assay [1] came out at 9 µg/mL (≈ 21.9 µM); in the assay on A-549 (lung carcinoma), 7 µg/mL (≈ 17 µM); in assay [2], 10 µg/mL (≈ 24.3 µM).
The matching figures for `O=C(/C=C/c1cccc(O)c1)c1ccccc1NS(=O)(=O)c1cccc(O)c1` [Compound 22, 2′-(m-hydroxybenzenesulfonylamino)-3-hydroxychalcone]: 28 µg/mL (≈ 70.8 µM), 27 µg/mL (≈ 68.3 µM) and 45 µg/mL (≈ 114 µM).
Turning to `O=C(/C=C/c1ccc(O)cc1O)c1ccc(OS(=O)(=O)c2ccc(O)cc2)cc1` [Compound 92, 4′-(p-hydroxybenzenesulfonate)-2,4-dihydroxychalcone], the IC50 in assay [1] amounted to 8 µg/mL (≈ 19.4 µM); in the assay on A-549 (lung carcinoma), 9 µg/mL (≈ 21.8 µM); in assay [2] it was 7 µg/mL (≈ 17 µM).
The matching figures for `O=C(/C=C/c1cc(O)ccc1O)c1ccccc1NS(=O)(=O)c1ccc(O)cc1` [Compound 59, 2′-(p-hydroxybenzenesulfonylamino)-2,5-dihydroxychalcone]: 9 µg/mL (≈ 21.9 µM), 13 µg/mL (≈ 31.6 µM) and 20 µg/mL (≈ 48.6 µM).
The matching figures for `Nc1ccc(S(=O)(=O)Nc2ccc(C(=O)/C=C/c3ccc(O)cc3)cc2)cc1` [Compound 30, 4′-(p-aminobenzensulfonylamino)-4-hydroxychalcone]: 52 µg/mL (≈ 132 µM), 50 µg/mL (≈ 127 µM) and 59 µg/mL (≈ 150 µM).
The matching figures for `O=C(/C=C/c1ccc(O)cc1)c1ccccc1NS(=O)(=O)c1cccc(O)c1` [Compound 21, 2′-(m-hydroxybenzenesulfonylamino)-4-hydroxychalcone]: 31 µg/mL (≈ 78.4 µM), 39 µg/mL (≈ 98.6 µM) and 43 µg/mL (≈ 109 µM).
For the molecule `Nc1cccc(S(=O)(=O)Nc2ccc(C(=O)/C=C/c3ccc(O)cc3)cc2)c1` [Compound 31, 4′-(m-aminobenzensulfonylamino)-4-hydroxychalcone], the figures for the IC50 (in assay [1]; with A-549 (lung carcinoma); in assay [2]) were 24 µg/mL (≈ 60.8 µM), 34 µg/mL (≈ 86.2 µM) and 27 µg/mL (≈ 68.4 µM), respectively.
The matching figures for `O=C(/C=C/c1cccc(O)c1O)c1ccc(NS(=O)(=O)c2ccc(O)cc2)cc1` [Compound 49, 4′-(p-hydroxybenzenesulfonylamino)-2,3-dihydroxychalcone]: 8 µg/mL (≈ 19.4 µM), 6 µg/mL (≈ 14.6 µM) and 14 µg/mL (≈ 34 µM).
The matching figures for `CS(=O)(=O)Oc1ccc(C(=O)/C=C/c2ccc(O)cc2)cc1` [Compound 41, 4′-(methanesulfonate)-4-hydroxychalcone]: 42 µg/mL, 49 µg/mL and 48 µg/mL.
In the case of `O=C(/C=C/c1ccc(O)cc1)c1ccc(OS(=O)(=O)c2cccc(O)c2)cc1` [Compound 87, 4′-(m-hydroxybenzenesulfonate)-4-hydroxychalcone], the IC50 in assay [1] amounted to 19 µg/mL (≈ 47.9 µM); in the assay on A-549 (lung carcinoma), 20 µg/mL (≈ 50.5 µM); in assay [2], 21 µg/mL (≈ 53 µM).
The matching figures for `Cc1ccc(S(=O)(=O)Nc2ccccc2C(=O)/C=C/c2ccc(O)c(O)c2)cc1` [Compound 47, 2′-(p-toluenesulfonylamino)-3,4-dihydroxychalcone]: 8 µg/mL (≈ 19.5 µM), 11 µg/mL (≈ 26.9 µM) and 17 µg/mL (≈ 41.5 µM).
For `O=C(/C=C/c1ccc(O)c(O)c1)c1ccc(NS(=O)(=O)c2cccc(O)c2)cc1` [Compound 60, 4′-(m-hydroxybenzenesulfonylamino)-3,4-dihydroxychalcone], the IC50 in assay [1] turned out to be 4 µg/mL (≈ 9.72 µM); with A-549 (lung carcinoma), 7 µg/mL (≈ 17 µM); in assay [2] it was 8 µg/mL (≈ 19.4 µM).
With `Cc1ccc(S(=O)(=O)Nc2ccc(C(=O)/C=C/c3ccccc3O)cc2)cc1` [Compound 3, 4′-(p-toluenesulfonylamino)-2-hydroxychalcone], the IC50 in assay [1] was 40 µg/mL (≈ 102 µM); with A-549 (lung carcinoma), 35 µg/mL (≈ 89 µM); in assay [2], 37 µg/mL (≈ 94 µM).
The matching figures for `O=C(/C=C/c1ccccc1O)c1ccc(OS(=O)(=O)c2cccc(O)c2)cc1` [Compound 89, 4′-(m-hydroxybenzenesulfonate)-2-hydroxychalcone]: 24 µg/mL (≈ 60.5 µM), 37 µg/mL (≈ 93.3 µM) and 33 µg/mL (≈ 83.2 µM).
`O=C(/C=C/c1ccc(O)c(O)c1)c1ccc(OS(=O)(=O)c2ccc(O)cc2)cc1` [Compound 90, 4′-(p-hydroxybenzenesulfonate)-3,4-dihydroxychalcone]: the IC50 in assay [1] was 6 µg/mL (≈ 14.5 µM); in the assay on A-549 (lung carcinoma) it was 4 µg/mL (≈ 9.7 µM); in assay [2], 8 µg/mL (≈ 19.4 µM).
On to `O=C(/C=C/c1ccc(O)cc1)c1ccc(NS(=O)(=O)c2ccccc2[N+](=O)[O-])cc1` [Compound 29, 4′-(o-nitrobenzensulfonylamino)-4-hydroxychalcone], for which the IC50 in assay [1] turned out to be 29 µg/mL (≈ 68.3 µM); in the assay with A-549 (lung carcinoma), 37 µg/mL (≈ 87.2 µM); in assay [2] it was 21 µg/mL (≈ 49.5 µM).
The matching figures for `Cc1ccc(S(=O)(=O)Nc2ccc(C(=O)/C=C/c3cc(O)ccc3O)cc2)cc1` [Compound 45, 4′-(p-toluenesulfonylamino)-2,5-dihydroxychalcone]: 11 µg/mL (≈ 26.9 µM), 12 µg/mL (≈ 29.3 µM) and 14 µg/mL (≈ 34.2 µM).
The matching figures for `O=C(/C=C/c1cccc(O)c1O)c1ccccc1NS(=O)(=O)c1cccc(O)c1` [Compound 69, 2′-(m-hydroxybenzenesulfonylamino)-2,3-dihydroxychalcone]: 7 µg/mL (≈ 17 µM), 8 µg/mL (≈ 19.4 µM) and 16 µg/mL (≈ 38.9 µM).
As for `O=C(/C=C/c1cc(O)ccc1O)c1cccc(NS(=O)(=O)c2ccc(O)cc2)c1` [Compound 55, 3′-(p-hydroxybenzenesulfonylamino)-2,5-dihydroxychalcone], the IC50 in assay [1] came to 6 µg/mL (≈ 14.6 µM); in the assay with A-549 (lung carcinoma) it was 7 µg/mL (≈ 17 µM); in assay [2], 12 µg/mL (≈ 29.2 µM).
The matching figures for `O=C(/C=C/c1ccc(O)cc1O)c1ccc(NS(=O)(=O)c2ccc(O)cc2)cc1` [Compound 50, 4′-(p-hydroxybenzenesulfonylamino)-2,4-dihydroxychalcone]: 9 µg/mL (≈ 21.9 µM), 10 µg/mL (≈ 24.3 µM) and 9 µg/mL (≈ 21.9 µM).
